Source: patent publication US8101618B2, “1,4-substituted piperazine derivatives” (MSD K.K., priority 2005, dated 2012)

Columns and labels:
Male ICR (CD-1) mice = assay: Inhibitory effect of compound to mouse action increased by methamphetamine; format: in vivo; conditions: compound 30 mg/kg intraabdominal 30 minutes before methamphetamine 2 mg/kg subcutaneous; motion watched for 60 minutes
Method: Male ICR (CD-1) mice (20-40 g) were used. Using a motion watcher (by Neuroscience) for watching animal movement with an IR sensor, the motion of the mice was determined. A compound or a suitable solvent was administered to each mouse, and after 30 minutes, physiological saline water or methamphetamine was administered thereto. Immediately after that, the motion of the mice was watched for 60 minutes. Based on the difference between the motion of the methamphetamine-administered group and the solvent-administered group during the test term, 100%, the motion of the test compound-administered group is computed and expressed as inhibition %.

[1] = biological target: T1, human metabotropic glutamic acid receptor 1a (mGluR1a) (Homo sapiens, UniProt Q13255); assay: Measurement of intracellular calcium concentration (FLIPR) in mGluR1a-expressing CHO cells; format: cell-based; conditions: for IC50: Fluo-3, compound added 5 minutes before 10 μM glutamic acid, read-out: IC50 (inhibition of the calcium increase caused by 10 μM glutamic acid); for agonistic effect to mGluR1: to 10 μM, intracellular calcium
T1 construct: expressed in transfected cells
T1 sequence (Q13255 19-1194): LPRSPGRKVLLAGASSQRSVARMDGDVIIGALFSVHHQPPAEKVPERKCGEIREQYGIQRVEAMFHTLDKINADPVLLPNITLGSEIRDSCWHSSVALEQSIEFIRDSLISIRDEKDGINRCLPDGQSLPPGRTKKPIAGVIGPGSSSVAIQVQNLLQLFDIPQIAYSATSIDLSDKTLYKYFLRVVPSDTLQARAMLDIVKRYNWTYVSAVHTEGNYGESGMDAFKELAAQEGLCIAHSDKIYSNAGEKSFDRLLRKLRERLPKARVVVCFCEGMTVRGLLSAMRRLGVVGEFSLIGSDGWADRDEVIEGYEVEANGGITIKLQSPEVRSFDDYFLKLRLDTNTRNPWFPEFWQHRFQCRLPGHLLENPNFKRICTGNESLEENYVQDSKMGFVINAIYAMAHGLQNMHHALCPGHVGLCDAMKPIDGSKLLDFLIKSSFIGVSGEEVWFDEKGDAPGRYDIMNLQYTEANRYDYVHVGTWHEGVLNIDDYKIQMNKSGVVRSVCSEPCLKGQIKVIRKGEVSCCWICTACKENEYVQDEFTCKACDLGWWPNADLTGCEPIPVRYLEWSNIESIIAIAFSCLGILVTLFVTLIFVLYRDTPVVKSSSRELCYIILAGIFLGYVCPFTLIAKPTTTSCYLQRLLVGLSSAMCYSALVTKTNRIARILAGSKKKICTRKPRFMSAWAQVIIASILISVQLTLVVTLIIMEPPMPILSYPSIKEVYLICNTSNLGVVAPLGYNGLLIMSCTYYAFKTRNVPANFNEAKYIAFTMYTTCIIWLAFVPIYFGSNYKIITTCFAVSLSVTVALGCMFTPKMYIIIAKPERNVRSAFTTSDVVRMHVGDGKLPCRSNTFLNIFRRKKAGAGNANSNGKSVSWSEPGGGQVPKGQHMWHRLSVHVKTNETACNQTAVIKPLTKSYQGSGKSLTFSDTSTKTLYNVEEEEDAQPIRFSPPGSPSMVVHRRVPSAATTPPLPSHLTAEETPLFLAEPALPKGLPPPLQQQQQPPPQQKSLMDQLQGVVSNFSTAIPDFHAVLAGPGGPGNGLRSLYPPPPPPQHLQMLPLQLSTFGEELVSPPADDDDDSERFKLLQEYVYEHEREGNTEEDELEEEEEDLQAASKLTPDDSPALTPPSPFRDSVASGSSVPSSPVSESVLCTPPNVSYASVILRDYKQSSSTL
Method: Using LIPOFECTAMINE (BY Gibco BRL), CHO cells were transfected with a cDNA of a human metabotropic glutamic acid receptor 1a (mGluR1a), thereby obtaining an mGluR1a stable expression strain. The mGluR1a-expressing CHO cells were incubated in a DMEM medium containing 10% dialyzed fetal calf serum, 1% proline, 100 units/ml penicillin, 0.1 mg/ml streptomycin sulfate, and 2 mM glutamine.
On the day before the test day, the mGluR1a-expressing CHO cells that had been plated in a 96-well black plate (View Plate by Packard) at […] with 4 μM Fluo-3 were incubated in a CO2 incubator for 1 hour. Next, the cells were washed four times with an HBSS solution containing 20 mM HEPES and 2.5 mM Probenecid, and then the intracellular calcium concentration was measured using Fluorescence Imaging Plate Reader (FLIPR by Molecular Device). The test compound and glutamic acid were conditioned with an HBSS solution containing 20 mM HEPES and 2.5 mM Probenecid. The test compound was added to the system before 5 minutes of agonist stimulation, and 10 μM glutamic acid was used as the agonist.

Structure (SMILES) | Motion (inhibition %) (Male ICR (CD-1) mice) | IC50 [1] | agonistic effect to mGluR1 [1]
Cc1ccnc(N2CCN(C(=O)OCC(C)(C)C)CC2)c1 [Example 1, 2,2-Dimethylpropyl 4-(4-methylpyridin-2-yl)-1-piperazinecarboxylate] | >50% | 6.9 nM | no agonistic effect
CC(C)(C)COC(=O)N1CCN(c2nc3ccccc3o2)CC1 [Example 3, 2,2-Dimethylpropyl 4-(benzoxazol-2-yl)-1-piperazinecarboxylate] |  | 33 nM | no agonistic effect
C[C@@H](O)c1nc(-c2ccnc(N3CCN(C(=O)OCC(C)(C)C)CC3)c2)no1 [Example 27, 2,2-Dimethylpropyl 4-(4-{5-[(1R)-1-hydroxyethyl]-1,2,4-oxadiazol-3-yl}pyridin-2-yl)-1-piperazinecarboxylate] | >50% | 9.6 nM | no agonistic effect
CNc1nc(-c2ccnc(N3CCN(C(=O)OCC(C)(C)C)CC3)c2)no1 [Example 39, 2,2-Dimethylpropyl 4-{4-[5-(methylamino)-1,2,4-oxadiazol-3-yl]pyridin-2-yl}-1-piperazinecarboxylate] | >50% | 13 nM | no agonistic effect
C[C@H](O)c1nc(-c2ccnc(N3CCN(C(=O)CCC(C)(C)C)CC3)c2)no1 [Example 58, 1-(4,4-Dimethylpentanoyl)-4-(4-{5-[(1S)-hydroxyethyl]-1,2,4-oxadiazol-3-yl}pyridin-2-yl)piperazine] | >50% | 16 nM | no agonistic effect
